Measurements as given in PubChem BioAssay (NCI).
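Growth conditions: 96-well plates. Treatment: test compound, 48 hours, 5 concentrations. Analysis: linear interpolation between bracketing concentrations; unreached endpoints set to highest concentration. GI50 is the concentration that inhibits growth by half. TGI denotes the concentration required for complete inhibition of growth.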

Experiments:
Test in all cases: growth of human tumour cells (NCI), 48 h
DMS 273 small cell lung = system: DMS 273 small cell lung
RXF-631 renal = system: RXF-631 renal
SNB-78 CNS = system: SNB-78 CNS
XF 498 CNS = system: XF 498 CNS
DMS 114 small cell lung = system: DMS 114 small cell lung
M19-MEL melanoma = system: M19-MEL melanoma
MDA-N = system: MDA-N

| SMILES | TGI (DMS 273 small cell lung) [µM] | TGI (RXF-631 renal) [µM] | TGI (SNB-78 CNS) [µM] | TGI (XF 498 CNS) [µM] | TGI (DMS 114 small cell lung) [µM] | TGI (M19-MEL melanoma) [µM] | TGI (MDA-N) [µM] | GI50 (MDA-N) [µM] |
| --- | --- | --- | --- | --- | --- | --- | --- | --- |
| Cc1cccc(C(C)(C)C)c1NC(=O)CC1C(=O)Nc2ccccc2S1=O (stereo not drawn) | > 100 | > 100 | > 100 | > 100 |  |  |  |  |
| COc1cc2c(cc1OC)-c1c(cnn1C1OC(COC(C)=O)C(OC(C)=O)C(OC(C)=O)C1OC(C)=O)CC2 (stereo not drawn) | > 100 |  | > 100 |  | > 100 | > 100 |  |  |
| CC1C(=O)N=C2C(=CN(Cc3ccccc3)c3ccccc32)C(=O)N1C (stereo not drawn) |  |  |  |  |  |  | > 100 |  |
| CCN=C1NN=C(c2ccccc2)c2cc(Cl)ccc2N1 | 26.2 | 41.7 | 72 | 45.2 | 43.9 | 39.5 |  |  |
| CCCOc1ccc(/C=C\c2cc(OC)c(OC)c(OC)c2)cc1 | > 100 | > 100 | > 100 | > 100 | > 100 | > 100 |  |  |
| CCOC(=O)/C(C#N)=C(O)/C(=C/c1ccccc1Cl)NC(=O)c1ccccc1 | > 100 |  | > 100 |  | > 100 | > 100 |  |  |
| C=CCOc1cc2c(cc1C(C)c1ccc(OC)cc1)OCO2 (stereo not drawn) | > 100 |  | > 100 | 0.753 | 0.838 | > 100 | > 100 |  |
| O=S(=O)(O)C(F)(F)C(F)(F)C(F)(F)C(F)(F)F | > 100 |  |  | > 100 | > 100 | > 100 |  |  |
| Clc1ccc(C2=Nc3ccccc3SC(c3ccc(Cl)c(Cl)c3)C2)c(Cl)c1 (stereo not drawn) | 30 |  | 35.5 | 26 | 27.1 | 32.2 |  |  |
| CC1(C)OC2C(CO)OC(n3ccc(=O)[nH]c3=O)C2O1 (stereo not drawn) |  |  |  |  |  |  | > 100 |  |
| CC[C@@]1(O)C(=O)NCc2c1cc1n(c2=O)Cc2cc3cc4c(cc3nc2-1)OCO4 |  |  |  |  |  |  | > 100 | 3.23 |
| CCNC(=O)C(O)C1(O)CCC2[C@@H]3CCC4=CC(=O)C=C[C@]4(C)C3[C@@H](O)C[C@@]21C (stereo partly drawn) | > 100 | > 100 | > 100 | > 100 | > 100 | > 100 |  |  |
| O=C(O)CC(Cc1ccc2c(c1)OCO2)C(=O)O (stereo not drawn) |  |  |  |  |  |  | > 100 |  |
| COc1ccc2[nH]c3c(cnn4cnnc34)c2c1 | > 100 | > 100 |  |  | > 100 | > 100 |  |  |
| CSC(=S)N(C)c1nc(=[N+](C)C)ss1 | > 100 |  | > 100 | > 100 | > 100 | > 100 |  |  |
| C/C(=N\NC(N)=S)c1ccc(/C(C)=N/NC(N)=S)cc1 |  | > 100 |  | > 100 | > 100 | > 100 |  |  |
